In patent EP3041456B1, “COMPOSITION AND METHOD FOR INDUCING OR STIMULATING GROWTH OF KERATINOUS FIBRES” (priority 2013, dated 2015):

Columns and labels:
[1] = Components of turpentine oil: body and main organ weights, autopsy, histology; assay type: in vivo, mice; design: main organs' weights, Liver / main organs' weights, Spleen / main organs' weights, 2 kidneys / main organs' weights, 2 testicles / main organs' weights, Thymus / main organs' weights, Brain: unit not given here; settings: 5% in ethanol, 4 weeks; for Total body weight in gram / main organs' weights, 2 kidneys / main organs' weights, 2 testicles / main organs' weights, Brain / main organs' weights, Liver / main organs' weights, Spleen / main organs' weights, Thymus: Mean +/- S.D., 10 mice per group
From the text: (§1) The following commercially available, components of turpentine oil were investigated: • (-) α-pinene; product No 13.127.32 Janssen Chim. 2440 Geel, Belgium • (+) α-pinene; product No 13.126.31 Janssen Chim. 2440, Geel Belgium • (-) β-pinene; product No 15.032.94 Janssen Chim, Geel, Belgium • Turpentine oil crude industrial product was originated from Portugal.
(§2) Young adult, male mice of the N.M.R.I. strain, weighing at the beginning of the experiment +/- 30 g were used, as in previous experiments.
(§3) The protocols used were similar to those described in the previous experiments and study was realized during summer months (July and August). Hair coats were cut along the dorsal surfaces with electric clippers in an area of +/- 6.0 cm^2 two days before treatments. Mice were divided into 4 groups of 10 animals. Each mouse received either • (1) A dose of 0.1 mL of 5% absolute ethanol solution of turpentine oil, • (2) (-) α-pinene, • (3) (+) α-pinene or • (4) (-) β-pinene administered topically on the surface of the shaved skin twice weekly.
(§4) Control groups of the same number and similar age and sex mice were treated the same way but topically applied the solvent alone (absolute ethanol).
(§5) After a 4-week treatment duration all the mice were sacrificed by decapitation, and general autopsies were performed in which skin and main organs specimens were excised and fixed in 10% formalin for histological examination after paraffin embedding and hematoxylin -eosin staining.
(§6) The following evaluating criteria of the observations and results were used: • (1) body and main organ weights, • (2) skin and main organs histological patterns, • (3) semi quantitative evaluation of hair follicles per 1 mm long area in a 5 different areas of the histological sections of the skin of each animal in each group at 100 x microscopic magnification.

hair follicles = test: Components of turpentine oil: number of hair follicles after 4-week topical treatment; assay type: in vivo, mice; settings: 4 weeks; for Mean number of hair follicles per 1 mm of skin +/- S.D.: 0.1 mL topically twice weekly, 10 mice per group
From the text: as §1, §2, §3, §4, §5, §6

Structure (SMILES) | Total body weight in gram [1] | main organs' weights, 2 kidneys [1] | main organs' weights, 2 testicles [1] | main organs' weights, Brain [1] | main organs' weights, Liver [1] | main organs' weights, Spleen [1] | main organs' weights, Thymus [1] | Mean number of hair follicles per 1 mm of skin +/- S.D. (hair follicles; 5% in absolute ethanol) | Mean number of hair follicles per 1 mm of skin +/- S.D. (hair follicles; 5% in absolute ethanol, listed as (+) α- pinene) | activity (hair follicles multiplication) compared with the control group (hair follicles; 5% in ethanol) | general toxicity [1] | Mean number of hair follicles per 1 mm of skin +/- S.D. (hair follicles; 5% in absolute ethanol, listed as (-) α- pinene) | mice with more than 50 hair follicles (hair follicles; 5% in absolute ethanol, group of 10 mice) | local skin alteration (clinical signs or microscopic examination) (hair follicles; 5% in ethanol) | Mean number of hair follicles per 1 mm of skin +/- S.D. (hair follicles; 5% in absolute ethanol, listed as (-) β- pinene) | Mean number of hair follicles per 1 mm of skin +/- S.D. (hair follicles; 5% in absolute ethanol, listed as β-pinene)
CC1=CC[C@@H]2C[C@H]1C2(C)C [(+) α-pinene, (1R)-(+)-α-pinene] | 40.1 ± 3.73 gram | 840 ± 89.7 | 432 ± 34.9 | 658 ± 23.8 | 2834 ± 283.4 | 390 ± 36.7 | 266 ± 18.1 | 28.9 per 1 mm of skin | 28.9 ± 6.4 per 1 mm of skin | only slightly superior to the effects of treatment with the solvent lone | – | – | – | – | – | –
CC1=CC[C@H]2C[C@@H]1C2(C)C [(-) α-pinene, (1S)-(-)-α-pinene] | 39.5 ± .42 gram | 814 ± 121.7 | 440 ± 41.8 | 674 ± 23 | 2790 ± 449.9 | 332 ± 24.9 | 252 ± 22.8 | 52.6 per 1 mm of skin | – | more than double | neither any sign of a possible general toxicity | 52.6 ± 7.8 per 1 mm of skin | 6 out of 10 | did not produce any local skin alteration | – | –
C=C1CC[C@H]2C[C@@H]1C2(C)C [(-) β-pinene, (1S)-(-)-β-pinene] | – | – | – | – | – | – | – | – | – | only slightly superior to the effects of treatment with the solvent lone | – | – | – | – | 28.1 ± 7.6 per 1 mm of skin | 28.1 per 1 mm of skin
